Data set [1] deals with Canine platelets. Description: Platelet cell viability assay (platelet-rich plasma, Cell Titer Glo). In kind it is cell-based. The note with it: Canis lupus familiaris, 5 h, isolated canine platelets ex vivo, five hours at 37° C. Put shortly: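 Isolated canine platelets were incubated ex vivo with a range of compound concentrations. After 20 min equilibration at room temperature, viability was measured by Cell Titer Glo luminescence.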
Background: Cellular ATP, detected with luciferase, serves as a proxy for viable cell number.

For data set [2], the system named is circulating platelets. To be noted: following injection in beagle canines; cited from earlier work.
The subject of data set [3] is circulating platelets. The note with it: following injection into C57BL/6 mice; cited from earlier work.
The subject of data set [4] is FL5.12/Bcl-2 cells. The experiment in a line: FL5.12/Bcl-2 cell viability assay under IL-3 withdrawal (CellTitre Glo). The format is cell-based, murine. To be noted: Mus musculus, IL-3 withdrawn 48 hrs, then 24 hrs with compound. In short, it runs like this:
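IL-3 withdrawal 48 hrs (no WEHI-3B medium), then compound 24 hrs, various concentrations; 37° C, 5% CO2; readout CellTitre Glo. Murine prolymphocytic FL5.12 stably overexpressing Bcl-2.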

The target in data set [5] is GST-Bcl-2 (Homo sapiens, UniProt P10415). Description: TR-FRET binding assay, GST-Bcl-2 with F-Bak peptide probe. To be noted: TR-FRET Binding Affinity, GST-Bcl-2, F-Bak peptide probe. Put shortly:
(§1)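 Ki was derived with Wang's equation for competitive binding of two ligands. The read-out was time-resolved fluorescence after a 3 h room-temperature incubation, using a Tb-labelled antibody donor and the F-Bak peptide acceptor (excitation 340/35 nm). Test compounds entered as DMSO serial dilutions starting at 50 μM, which was the 2× concentration.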
Background: TR-FRET usually uses a lanthanide donor and a delayed reading to cut background.

For data set [6], the target named is GST-Bcl-XL (Homo sapiens, UniProt Q07817). Description: TR-FRET binding assay, GST-Bcl-XL with F-Bak peptide probe. To be noted: TR-FRET Binding Affinity, GST-Bcl-XL, F-Bak peptide probe. In short, it runs like this: as §1

Molecules are shown by their SMILES. Read-outs that look alike come from different tables or passages of the source.

The values that follow come from US9073855B2, “BCL-2 selective apoptosis-inducing agents for the treatment of cancer and immune diseases” (AbbVie Inc., priority 2008, dated 2015).

Chain of GST-Bcl-XL (Q07817 whole entry): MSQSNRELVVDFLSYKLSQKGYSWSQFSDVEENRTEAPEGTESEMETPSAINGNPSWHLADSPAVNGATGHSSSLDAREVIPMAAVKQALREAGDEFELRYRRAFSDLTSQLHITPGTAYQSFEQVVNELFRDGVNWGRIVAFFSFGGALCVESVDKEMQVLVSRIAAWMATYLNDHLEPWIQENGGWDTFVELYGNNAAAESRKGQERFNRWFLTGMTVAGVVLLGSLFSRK
Chain of GST-Bcl-2 (P10415 whole entry): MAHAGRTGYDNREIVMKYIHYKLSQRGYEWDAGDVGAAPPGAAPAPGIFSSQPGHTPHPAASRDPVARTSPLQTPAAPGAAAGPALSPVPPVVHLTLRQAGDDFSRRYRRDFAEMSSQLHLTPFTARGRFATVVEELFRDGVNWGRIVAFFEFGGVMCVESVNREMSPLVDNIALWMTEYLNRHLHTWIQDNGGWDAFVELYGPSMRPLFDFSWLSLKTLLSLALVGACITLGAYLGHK

For `CN(C)CC[C@H](CSc1ccccc1)Nc1ccc(S(=O)(=O)NC(=O)c2ccc(N3CCN(Cc4ccccc4-c4ccc(Cl)cc4)CC3)cc2)cc1[N+](=O)[O-]` [ABT-737, 4-(4-((4′-chloro-1,1′-biphenyl-2-yl)methyl)piperazin-1-yl)-N-((4-(((1R)-3-(dimethylamino)-1-((phenylthio)methyl)propyl)amino)-3-nitrophenyl)sulfonyl)benzamide, reference compound], the figures for the concentration for a half-maximal effect (EC50) in data set [1] and in data set [4] were 0.282 µM and 0.025 µM, respectively. The “effect on circulating platelets” value in data set [2] is given as “rapid, concentration dependant decrease in circulating platelets”; in data set [3], “rapid, concentration dependant decrease in circulating platelets”.

Take `CN(C)CCCNc1ccc(S(=O)(=O)NC(=O)c2ccc(N3CCN(CC4=C(c5ccc(Cl)cc5)CC(C)(C)CC4)CC3)cc2Oc2ccc3[nH]ccc3c2)cc1C(F)(F)F` [Example 171, 4-(4-{[2-(4-chlorophenyl)-4,4-dimethylcyclohex-1-en-1-yl]methyl}piperazin-1-yl)-N-{[4-{[3-(dimethylamino)propyl]amino}-3-(trifluoromethyl)phenyl]sulfonyl}-2-(1H-indol-5-yloxy)benzamide]: the EC50 (commonly the concentration at which the effect is half-maximal) is more than 50 µM in data set [1] and 0.276 µM in data set [4]. The inhibition constant (Ki) (usually the equilibrium dissociation constant of an inhibitor or competing ligand from its target) in data set [5] worked out at 0.00294 µM; in data set [6] it was 0.0521 µM.

Consider `CN(C)CCCNc1ccc(S(=O)(=O)NC(=O)c2ccc(N3CCN(CC4=C(c5ccc(Cl)cc5)CC(C)(C)CC4)CC3)cc2Oc2ccc3[nH]ccc3c2)cc1C#N` [Example 172, 4-(4-{[2-(4-chlorophenyl)-4,4-dimethylcyclohex-1-en-1-yl]methyl}piperazin-1-yl)-N-[(3-cyano-4-{[3-(dimethylamino)propyl]amino}phenyl)sulfonyl]-2-(1H-indol-5-yloxy)benzamide], for which the EC50 in data set [1] was more than 50 µM; in data set [4] it was 0.194 µM. For the same compound, the Ki in data set [5] is 0.00205 µM; in data set [6] it was 0.0657 µM.

For the compound `CC1(C)CCC(CN2CCN(c3ccc(C(=O)NS(=O)(=O)c4ccc(NC5CCN(C6CCOCC6)CC5)c([N+](=O)[O-])c4)c(Oc4ccc5[nH]ccc5c4)c3)CC2)=C(c2ccc(Cl)cc2)C1` [Example 173, 4-(4-{[2-(4-chlorophenyl)-4,4-dimethylcyclohex-1-en-1-yl]methyl}piperazin-1-yl)-2-(1H-indol-5-yloxy)-N-({3-nitro-4-[(1-tetrahydro-2H-pyran-4-ylpiperidin-4-yl)amino]phenyl}sulfonyl)benzamide], the results for the EC50 in data set [1] and in data set [4] were more than 50 µM and 0.011 µM, respectively. For the same compound, the figures for the inhibitory constant (Ki) in data set [5] and in data set [6] were 0.000108 µM and 0.0221 µM, respectively.

For the compound `CN1CCN(Nc2ccc(S(=O)(=O)NC(=O)c3ccc(N4CCN(CC5=C(c6ccc(Cl)cc6)CC(C)(C)CC5)CC4)cc3Oc3ccc4[nH]ccc4c3)cc2[N+](=O)[O-])CC1` [Example 174, 4-(4-{[2-(4-chlorophenyl)-4,4-dimethylcyclohex-1-en-1-yl]methyl}piperazin-1-yl)-2-(1H-indol-5-yloxy)-N-({4-[(4-methylpiperazin-1-yl)amino]-3-nitrophenyl}sulfonyl)benzamide], the EC50 in data set [1] was found to be 19.5 µM; in data set [4] it was 0.011 µM. The Ki in data set [5] amounted to 0.000105 µM; in data set [6] it was 0.0621 µM.
